Literature values, collected in patent US20220265566A1, “ATOVAQUONE NANOPARTICULATE COMPOSITIONS” (Tulex Pharmaceuticals Inc., priority 2018, published 2022).

O=C1C(O)=C([C@H]2CC[C@H](c3ccc(Cl)cc3)CC2)C(=O)c2ccccc21 [ATQ, trans-2-[4-(4-chlorophenyl)cyclohexyl]-3-hydroxy-1,4-naphthalenedione]
Solubility in water: practically insoluble in water
